From US20240025924A1, “HETEROCYCLE SUBSTITUTED KETONE DERIVATIVE, AND COMPOSITION AND MEDICINAL USE THEREOF” (SHANGHAI HAIYAN PHARMACEUTICAL TECHNOLOGY CO., LTD., priority 2021, published 2024)

Assays:
[1] = molecular target: T1, SHP-2 enzyme (Homo sapiens, UniProt Q06124); test: Phosphatase activity assay (Homogeneous Full Length SHP-2 Assay Kit, DiFMUP substrate); assay type: biochemical; settings: full length SHP-2 activated with 0.5 μM SHP-2 activating Peptide; 1 hour co-incubation; DiFMUP 50 μM, 30 min
T1 construct: Homogeneous Full Length SHP-2 Assay Kit (BPS Bioscience #79330); purchased BPS Bioscience 79330
T1 sequence (Q06124 1-593): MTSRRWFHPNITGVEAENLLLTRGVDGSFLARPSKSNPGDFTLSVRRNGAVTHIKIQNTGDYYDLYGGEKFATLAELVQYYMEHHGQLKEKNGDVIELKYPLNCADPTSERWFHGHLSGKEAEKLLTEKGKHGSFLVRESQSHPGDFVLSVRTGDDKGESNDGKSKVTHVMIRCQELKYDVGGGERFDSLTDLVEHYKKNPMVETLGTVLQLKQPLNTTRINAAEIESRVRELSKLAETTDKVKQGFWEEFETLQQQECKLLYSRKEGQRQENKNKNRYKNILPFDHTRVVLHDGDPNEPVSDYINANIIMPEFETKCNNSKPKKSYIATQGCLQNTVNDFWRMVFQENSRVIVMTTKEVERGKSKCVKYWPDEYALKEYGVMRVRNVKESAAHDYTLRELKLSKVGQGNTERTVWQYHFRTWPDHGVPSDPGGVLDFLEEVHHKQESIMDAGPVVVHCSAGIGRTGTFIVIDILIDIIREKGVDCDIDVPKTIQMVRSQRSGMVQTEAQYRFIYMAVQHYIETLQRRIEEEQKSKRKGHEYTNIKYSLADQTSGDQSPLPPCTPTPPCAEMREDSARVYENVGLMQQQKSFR
Procedure: IC50 values were assayed using Homogeneous Full Length SHP-2 Assay Kit (BPS Bioscience #79330), which uses 6,8-difluoro-4-methylumbelliferone phosphate (DiFMUP) as the reaction substrate. SHP2 enzyme solution (diluted to 0.04 ng/μL with 1*buffer) was mixed with 0.5 μM SHP-2 activating Peptide in a 1*buffer solution containing 2.5 mM DTT to activate PTP. At the same time, DMSO (0.1% (V/V)) or the compounds (concentration: 0.5 nM to 1 μM) were added, mixed and co-incubated for 1 hour. DiFMUP (50 μM, total reaction system volume of 20 μL) was added, and the reaction was started. After 30 min of incubation, the fluorescence intensity of the reaction system (excitation wavelength: 350 nm, emission wavelength: 460 nm) was measured by Tecan Infinite M1000.

[2] = tested on: MV-4-11 cell; test: Cell proliferation assay (Cell Titer-Glo); assay type: cell-based; settings: Homo sapiens, MV4-11, 96 h, inhibition of MV-4-11 cell proliferation; Cell Titer-Glo on day 4
Procedure: MV 411 cells (20000 cells/well) were inoculated and cultured in 96 (Corning #3916) well plates, and the medium was 80 μL/well (IMDM with 10% fetal bovine serum (FBS), Gibco #10099-141C). After 24 hours of incubation, 20 μL of the compounds of the present invention configured to different concentrations (DMSO final concentration of 0.1% (V/V)) were added. On day 4, 60 μL of Cell Titer-Glo (Promega #G7558) was added to each well and mixed at 80 rpm, 25° C., 15 min, and the fluorescence values were detected by Victor X5 (PE).

| Structure (SMILES) | IC50 [1] | IC50 [2] |
| --- | --- | --- |
| Nc1nc2c(s1)CN(C(=O)c1ncc(N3CCC4(CC3)Cc3ccc(F)cc3C4N)nc1N)CC2(F)F (centres unmarked) [Compound 116] | 5 nM | 6 nM |
| Nc1nc(N2CCC3(CC2)Cc2ccc(F)cc2C3N)cnc1C(=O)N1CCc2ncccc21 (centres unmarked) [Compound 16] | 5 nM | 40 nM |
| CNc1ccc2c(n1)CCN2C(=O)c1ncc(N2CCC3(CC2)Cc2ccccc2C3N)nc1N (centres unmarked) [Compound 92] | 4 nM | 119 nM |
| Cc1ccc2c(c1)C(N)C1(CCN(c3cnc(C(=O)N4CCc5nc(N)ccc54)c(N)n3)CC1)C2 (centres unmarked) [Compound 64] | 5 nM | 70 nM |
| Nc1nc(N2CCC3(CC2)Cc2ccccc2C3N)cnc1C(=O)N1CCc2scnc2C1 (centres unmarked) [Compound 19] | 5 nM | 142 nM |
| Nc1nc(N2CCC3(CC2)Cc2ccccc2C3N)cnc1C(=O)N1CCc2ncsc2C1 (centres unmarked) [Compound 10] | 4 nM | 44 nM |
| Nc1nc(N2CCC3(CC2)Cc2ncsc2C3N)cnc1C(=O)N1CCCn2nccc21 (centres unmarked) [Compound 86] | 8 nM | 286 nM |
| Nc1nc(N2CCC3(CC2)Cc2cc(F)ccc2C3N)cnc1C(=O)N1CCCn2nccc21 (centres unmarked) [Compound 4] | 1 nM | 78 nM |
| Nc1nc(N2CCC3(CC2)Cc2ccncc2C3N)cnc1C(=O)N1CCCn2nccc21 (centres unmarked) [Compound 79] | 14 nM | 257 nM |
| CC1CN(C(=O)c2ncc(N3CCC4(CC3)Cc3cc(F)ccc3C4N)nc2N)c2ccc(N)nc21 (centres unmarked) [Compound 88] | 5 nM | 235 nM |
| COc1ccc2c(c1)CC1(CCN(c3cnc(C(=O)N4CCCn5nccc54)c(N)n3)CC1)C2N (centres unmarked) [Compound 76] | 10 nM | 191 nM |
| COc1ccc2c(c1)C(N)C1(CCN(c3cnc(C(=O)N4CCc5nc(N)ccc54)c(N)n3)CC1)C2 (centres unmarked) [Compound 62] | 5 nM | 156 nM |
| CC1(C)CN(C(=O)c2ncc(N3CCC4(CC3)Cc3ccccc3C4N)nc2N)Cc2sc(N)nc21 (centres unmarked) [Compound 61] | 7 nM | 71 nM |
| Cc1nc(N2CCC3(CC2)Cc2ccccc2C3N)c(CO)nc1C(=O)N1Cc2sc(N)nc2C(F)(F)C1 (centres unmarked) [Compound 112] | 14 nM | 18 nM |
| Cc1cc2c(cc1C)C(N)C1(CCN(c3cnc(C(=O)N4CCc5nc(N)sc5C4)c(N)n3)CC1)C2 (centres unmarked) [Compound 99] | 10 nM | 46 nM |
| Nc1nc2c(s1)CN(C(=O)c1ncc(N3CCC4(CC3)Cc3ccc(C5CC5)cc3C4N)nc1N)CC2 (centres unmarked) [Compound 110] | 9 nM | 21 nM |
| CNc1ccc2c(n1)CCN2C(=O)c1nc(C)c(N2CCC3(CC2)Cc2ccccc2C3N)nc1N (centres unmarked) [Compound 103] | 13 nM | 65 nM |
| Nc1nc(N2CCC3(CC2)Cc2ccccc2C3N)cnc1C(=O)N1CCCc2ncccc21 (centres unmarked) [Compound 13] | 11 nM | 82 nM |
| Nc1nc(N2CCC3(CC2)Cc2ccccc2C3N)c(F)nc1C(=O)N1CCCn2nccc21 (centres unmarked) [Compound 49] | 8 nM | 241 nM |
| COc1ccc2c(c1)C(N)C1(CCN(c3ncc(C(=O)N4Cc5sc(N)nc5C(F)(F)C4)nc3CO)CC1)C2 (centres unmarked) [Compound 119] | 7 nM | 5 nM |
| CC1CN(C(=O)c2ncc(N3CCC4(CC3)Cc3ccccc3C4N)nc2N)c2ccc(N)nc21 (centres unmarked) [Compound 89] | 4 nM | 127 nM |
| Cc1nc(C(=O)N2CCCn3nccc32)c(N)nc1N1CCC2(CC1)Cc1ccc(F)cc1C2N (centres unmarked) [Compound 27] | 5 nM | 98 nM |
| Nc1ccc2c(n1)CCN2C(=O)c1ncc(N2CCC3(CC2)Cc2ccc(Cl)cc2C3N)nc1N (centres unmarked) [Compound 91] | 3 nM | 61 nM |
| NC(=O)c1nc(C(=O)N2Cc3sc(N)nc3C(F)(F)C2)cnc1N1CCC2(CC1)Cc1ccccc1C2N (centres unmarked) [Compound 117] | 11 nM | 39 nM |
| Nc1ccc2c(n1)CCN2C(=O)c1ncc(N2CCC3(CC2)Cc2ccc(F)cc2C3N)nc1N (centres unmarked) [Compound 95] | 3 nM | 176 nM |
